This is an account of results in BindingDB's records for doi:10.1021/jm030810w (Glaxosmithkline, 2003).

The test concerns the target Cytomegalovirus protease/assemblin (Human cytomegalovirus). Put plainly: Potency against human cytomegalovirus protease in HCMV pNA assay.
As a reminder, the Ki is the dissociation constant of the complex between target and ligand, obtained from inhibition or displacement. Lower therefore signals higher affinity. `CC(C)c1ccc(NC(=O)N2CCC[C@H]2C(=O)N2CC[C@H]3[C@H]2[C@H](C)C(=O)N3c2nc3c(Cl)cccc3s2)cc1` [(S)-2-[(3aS,6S,6aR)-4-(4-Chloro-benzothiazol-2-yl)-6-methyl-5-oxo-hexahydro-pyrrolo[3,2-b]pyrrole-1-carbonyl]-pyrrolidine-1-carboxylic acid (4-isopropyl-phenyl)-amide] displayed a Ki of 41 nM. This counts as double-digit nanomolar. The value for `COc1ccc2sc(N3C(=O)[C@@H](C)[C@@H]4[C@@H]3CCN4C(=O)[C@@H]3CCCN3C(=O)Nc3ccc(C(C)C)cc3)nc2c1` [(S)-2-[(3aS,6S,6aR)-4-(5-Methoxy-benzothiazol-2-yl)-6-methyl-5-oxo-hexahydro-pyrrolo[3,2-b]pyrrole-1-carbonyl]-pyrrolidine-1-carboxylic acid (4-isopropyl-phenyl)-amide] was 22 nM; that for `CC(C)c1ccc(NC(=O)N2CCC[C@H]2C(=O)N2CC[C@H]3[C@H]2[C@H](C)C(=O)N3c2nc3ccc(F)cc3s2)cc1` [(S)-2-[(3aS,6S,6aR)-4-(6-Fluoro-benzothiazol-2-yl)-6-methyl-5-oxo-hexahydro-pyrrolo[3,2-b]pyrrole-1-carbonyl]-pyrrolidine-1-carboxylic acid (4-isopropyl-phenyl)-amide] was 17 nM. As for `CC(C)c1ccc(NC(=O)N2CCC[C@H]2C(=O)N2CC[C@H]3[C@H]2[C@H](C)C(=O)N3c2nc3cc(S(=O)(=O)C(F)F)ccc3s2)cc1` [(S)-2-{(3aS,6S,6aR)-4-[5-(Difluoro-methanesulfonyl)-benzothiazol-2-yl]-6-methyl-5-oxo-hexahydro-pyrrolo[3,2-b]pyrrole-1-carbonyl}-pyrrolidine-1-carboxylic acid (4-isopropyl-phenyl)-amide], the Ki came out at 10 nM.
